# pEC50: −log10 of the molar value. Values joined by “and” are separate entries in the source; they are usually repeats but may differ in a detail not shown here. Equal entries are not always repeated. Where no end group is shown, it is not given here.
# Assays:
# Format in all cases: cell-based
# PTHR1 [1] = target: T1, PTHR1 (Homo sapiens, UniProt Q03431); test: cAMP accumulation assay (HTRF) in CHO-K1/Ga15/PTHR1 cells; design: host or cells: CHO-K1 (recombinant line CHO-K1/Ga15/PTHR1); conditions: for Emax: CHO-K1, cAMP assay, fitted dose-response maximum; for cAMP accumulation activity compared to control peptide: FIG. 3, PTH 1-34 positive control; for cAMP: relative to PTH [1-34], CHO-K1/Ga15/PTHR1 cells; for EC50: read-out: −log10EC50 (converted)
# T1 sequence (Q03431 27-593): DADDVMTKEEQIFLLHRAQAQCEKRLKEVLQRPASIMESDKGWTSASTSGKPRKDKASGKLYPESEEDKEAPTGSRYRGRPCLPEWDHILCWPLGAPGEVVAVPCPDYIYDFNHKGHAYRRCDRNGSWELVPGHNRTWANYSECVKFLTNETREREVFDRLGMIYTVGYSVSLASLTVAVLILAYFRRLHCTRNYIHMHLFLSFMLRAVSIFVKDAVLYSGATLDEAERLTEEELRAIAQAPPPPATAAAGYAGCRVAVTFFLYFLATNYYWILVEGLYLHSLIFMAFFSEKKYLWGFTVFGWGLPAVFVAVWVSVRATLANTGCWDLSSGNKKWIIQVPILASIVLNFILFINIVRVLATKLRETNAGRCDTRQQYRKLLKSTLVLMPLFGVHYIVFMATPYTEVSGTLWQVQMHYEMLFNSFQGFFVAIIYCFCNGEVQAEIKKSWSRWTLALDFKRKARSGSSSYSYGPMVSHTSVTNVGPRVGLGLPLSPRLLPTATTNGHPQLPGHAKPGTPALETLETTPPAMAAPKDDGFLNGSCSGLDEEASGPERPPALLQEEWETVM
# Procedure: Cell suspension (5 μL) was seeded in 384-well plates at a density of 3,000 cells/well. Cells were treated with test samples (5 μL) or agonist (PTH 1-34) for 30 minutes at room temperature. cAMP-d2 working solution (5 μL) and anti-cAMP-Cryptate working solution (5 μL) were added to cells and incubated for 60 minutes at room temperature. The signal of the assay plate was read with PheraStar (BMG LABTECH, NC), an HTRF compatible reader.
# PTHR1 [2] = target: T1, PTHR1; test: β-arrestin1 recruitment BRET assay in transfected HEK293T cells; design: Flag (N); Life Technologies Corporation, CA (arrestin cDNA); host or cells: HEK293T (CRL-3216, ATCC); conditions: for −log10Slope / EC50: β-arrestin1 recruitment; for −log10Slope: fitted curve slope; for EC50: read-out: −log10EC50 (converted)
# Procedure: (§1) 18-24 hours post transfection, the Luciferase substrate Coelenterazine (NanoLight Technologies, AZ) was added to cells, a baseline BRET measurement was taken after 5 minutes incubation, and then serial dilutions of peptides, diluted in PBS (with 0.5 mM MgCl2+0.1% BSA FAF), were added to cells, and BRET signal was measured every 2 minutes for 30 minutes on Hybrid Multi-Mode Reader (Synergy Neo2, BioTek, VT). Seventy-five peptides were tested in the β-arrestin recruitment assay.
# PTHR1 [3] = target: T1, PTHR1; test: β-arrestin2 recruitment BRET assay in transfected HEK293T cells; design: Flag (N); Life Technologies Corporation, CA (arrestin cDNA); host or cells: HEK293T (CRL-3216, ATCC); conditions: for β-arrestin2 assay activity compared to control peptide: FIG. 2, PTH 1-34 positive control; for β2-arrestin: relative to PTH [1-34], HEK293T cells, BRET; for −log10Slope / EC50: β-arrestin2 recruitment; for −log10Slope: fitted curve slope; for EC50: read-out: −log10EC50 (converted)
# Procedure: as §1
# [4] = replicate plates, listed as R1-101
# [5] = cAMP accumulation, fitted curve slope, replicate plates
# [6] = cAMP accumulation, replicate plates
# [7] = cAMP assay, fitted dose-response curve
# [8] = cAMP assay, fitted dose-response slope
Compound,cAMP accumulation activity compared to control peptide (PTHR1 [1]),cAMP (PTHR1 [1]),−log10Slope (PTHR1 [1]; [5]),EC50 (PTHR1 [1]; [6]) [µM],further results
"CC[C@H](C)[C@H](NC(=O)[C@H](CCC(=O)O)NC(=O)[C@H](CO)NC(=O)[C@@H](NC(=O)[C@@H](N)CO)C(C)C)C(=O)N[C@@H](CCC(N)=O)C(=O)N[C@@H](CC(C)C)C(=O)N[C@@H](CCSC)C(=O)N[C@@H](Cc1cnc[nH]1)C(=O)N[C@@H](CC(N)=O)C(=O)N[C@@H](CC(C)C)C(=O)NCC(=O)N[C@@H](CCCCN)C(=O)N[C@@H](Cc1cnc[nH]1)C(=O)N[C@@H](CC(C)C)C(=O)N[C@@H](CC(N)=O)C(=O)N[C@@H](CO)C(=O)N[C@@H](CCSC)C(=O)N[C@@H](CCC(=O)O)C(=O)N[C@@H](CCCN=C(N)N)C(=O)N[C@H](C(=O)N[C@@H](CCC(=O)O)C(=O)N[C@@H](Cc1c[nH]c2ccccc12)C(=O)N[C@@H](CC(C)C)C(=O)N[C@@H](CCCN=C(N)N)C(=O)N[C@@H](CCCCN)C(=O)N[C@@H](CCCCN)C(=O)N[C@@H](CC(C)C)C(=O)N[C@@H](CCC(N)=O)C(=O)N[C@@H](CC(=O)O)C(=O)N[C@H](C(=O)N[C@@H](Cc1cnc[nH]1)C(=O)N[C@@H](CC(N)=O)C(=O)N[C@@H](Cc1ccccc1)C(=O)O)C(C)C)C(C)C [Teriparatide, reference compound]",increased activity as compared to the control peptide,++,–,–,"Emax (PTHR1 [1]): 100%; −log10Slope (PTHR1 [1]; cAMP accumulation, fitted curve slope, replicate plates, listed as R1-101): −4.492 and −4.864 and −4.046; β1-arrestin (PTHR1 [2]; relative to PTH [1-34], HEK293T cells, BRET): +; −log10Slope (PTHR1 [2]; [4]): −2.906 and −3.664 and −1.356; β-arrestin2 assay activity compared to control peptide (PTHR1 [3]): increased activity as compared to control; β2-arrestin (PTHR1 [3]): ++; −log10Slope (PTHR1 [3]; [4]): −3.44 and −3.409 and −3.396"
AVAEIQLMHQRAKWAIQEIGIKITRELLERYL [Peptide R2-42],–,–,13.11,0.285,−log10Slope (PTHR1 [2]; replicate plates): −1.503 and −1.149 and −5.574; β-arrestin2 assay activity compared to control peptide (PTHR1 [3]): activity similar to the control peptide; β2-arrestin (PTHR1 [3]): +; −log10Slope (PTHR1 [3]; replicate plates): −2.7849 and −2.122 and −2.912; EC50 (PTHR1 [3]; replicate plates): 0.00807 µM and 0.00422 µM and 0.0237 µM
AVAEIQLMHQRAKWDLLIELVKLLHELLKEYI [Peptide R2-40],increased activity as compared to the control peptide,++,−2.205,5.83e-06,−log10Slope (PTHR1 [2]; replicate plates): −4.125 and −1.577; EC50 (PTHR1 [2]; replicate plates): 0.571 µM and 3.6 µM; −log10Slope (PTHR1 [3]; replicate plates): −3.733 and −2.83; EC50 (PTHR1 [3]; replicate plates): 0.856 µM and 1.41 µM
AVAEIQLMHQRAKWDVLIELAKLLAELLRRYH [Peptide R2-47],increased activity as compared to the control peptide,++,12,–,"pEC50 (PTHR1 [1]): 9.23; −log10Slope (PTHR1 [2]; replicate plates): −1.834 and −2.2235 and −1.644; pEC50 (PTHR1 [2]; −log10EC50, β-arrestin1 recruitment, replicate plates): 5.84 and 6.19 and 5.44; −log10Slope (PTHR1 [3]; replicate plates): −2.078 and −1.716 and −1.634; pEC50 (PTHR1 [3]; −log10EC50, β-arrestin2 recruitment, replicate plates): 5.86 and 5.77 and 5.46"
AVAEIQLMHQRAKWEIQEIGIKITLDLLQTLK [Peptide R2-41],increased activity as compared to the control peptide,++,−2.911,5.57e-05,−log10Slope (PTHR1 [2]; replicate plates): −8.214; EC50 (PTHR1 [2]; replicate plates): 0.00383 µM; −log10Slope (PTHR1 [3]; replicate plates): −4.333; EC50 (PTHR1 [3]; replicate plates): 0.94 µM
AVAEIQLMHQRAKWEIQEIGIKITLELLKEYI [Peptide R2-37],increased activity as compared to the control peptide,–,−5.899,0.000813,−log10Slope (PTHR1 [2]; replicate plates): −1.386 and −0.8678 and −5.353; −log10Slope (PTHR1 [3]; replicate plates): −4.144 and −2.117 and −4.372; EC50 (PTHR1 [3]; replicate plates): 0.386 µM and 1.38 µM and 0.497 µM
AVAEIQLMHQRAKWELQEIGIKITLDLLEAYL [Peptide R2-39],–,–,–,–,−log10Slope (PTHR1 [2]; replicate plates): −0.2801 and −4.065 and −4.878; EC50 (PTHR1 [2]; replicate plates): 0.775 µM and 0.594 µM; −log10Slope (PTHR1 [3]; replicate plates): −5.314 and −3.58 and −2.2339
AVAEIQLMHQRAKWKQELELEEKNKKILEDVY [Peptide R2-32],–,–,−14.3219,0.312,–
AVAEIQLMHQRAKWRAEYELREMLLRLLEEIF [Peptide R1-96],activity similar to the control peptide,+,–,–,Emax (PTHR1 [1]): 99.7%; EC50 (PTHR1 [1]; [7]): 0.00986 µM; −log10Slope (PTHR1 [1]; [8]): −3.352
AVAEIQLMHQRAKWSILEELLKILTALLDEYI [Peptide R2-46],–,–,–,–,−log10Slope (PTHR1 [2]; replicate plates): −3.506 and −2.782 and −5.541; EC50 (PTHR1 [2]; replicate plates): 0.565 µM and 0.447 µM and 0.394 µM; −log10Slope (PTHR1 [3]; replicate plates): −3.413 and −1.882 and −2.306; EC50 (PTHR1 [3]; replicate plates): 0.539 µM and 0.187 µM and 0.55 µM
AVATIQLMTDIAKIRAEYELREMLLRLLEEIF [Peptide R2-6],–,–,−0.3341,–,–
GIAVFTIMHLRIYLRAEYELREMLLRLLEEIF [Peptide R2-17],–,–,−2.077,448,–
GIAVITIMIDYAKLRAEYELREMLLRLLEEIF [Peptide R2-22],increased activity as compared to the control peptide,++,7.165,–,pEC50 (PTHR1 [1]): 10.15
GIAVLTILDLRAKLRAEYELREMLLRLLEEIF [Peptide R2-14],increased activity as compared to the control peptide,++,2.196,–,pEC50 (PTHR1 [1]): 11.28
GLAALTIGLLRAKLRAEYELREMLLRLLEEIF [Peptide R2-24],increased activity as compared to the control peptide,++,5.587,–,pEC50 (PTHR1 [1]): 10.37
GVAEIQLMHDIPVIRAEYELREMLLRLLEEIF [Peptide R2-3],–,–,−8.5715,11.8,–
GVAEIQLMVDLDIIRAEYELREMLLRLLEEIF [Peptide R2-12],–,–,−2.726,137,–
GVAELQLMHDLAKIKLELELKVKLLEILKDVY [Peptide R2-49],–,–,–,–,Emax (PTHR1 [1]): 99.9%; EC50 (PTHR1 [1]; [7]): 1.62 µM; −log10Slope (PTHR1 [1]; [8]): −5.638
GVAELQLMHFRALLRAEYELREMLLRLLEEIF [Peptide R2-7],–,–,−0.9597,26100,–
GVALLQIVHDFAKIRAEYELREMLLRLLEEIF [Peptide R2-5],–,–,−4.972,–,–
GVAMLQILHDKAKVRAEYELREMLLRLLEEIF [Peptide R2-11],–,–,−11.3552,–,pEC50 (PTHR1 [1]): 5.70
GVSMLQIMHDLAVIRAEYELREMLLRLLEEIF [Peptide R2-4],–,–,−13.5432,1.36,–
GVVMLQFMHDVAKIRAEYELREMLLRLLEEIF [Peptide R2-9],–,–,−0.02713,–,–
GVYAIQAMHDLAKIRAEYELREMLLRLLEEIF [Peptide R2-10],–,–,−8.781,32.5,–
LILVEQLMDLRAYLRAEYELREMLLRLLEEIF [Peptide R2-16],–,–,−8.301,19.6,–
LILVKKIIDLRAYLRAEYELREMLLRLLEEIF [Peptide R2-21],–,–,−8.121,21.2,–
"LMHNLGKHLNSMERVEWLRKKLQDVHNFVA [PTH 7-36 antago, reference compound]",–,–,–,–,−log10Slope (PTHR1 [2]; replicate plates): −1.192; EC50 (PTHR1 [2]; replicate plates): 0.105 µM; −log10Slope (PTHR1 [3]; replicate plates): −2.649; EC50 (PTHR1 [3]; replicate plates): 0.0469 µM
PIPVKDIMDLRAYLRAEYELREMLLRLLEEIF [Peptide R2-19],–,–,−5.2427,20.5,–
SIIGEQLMLLRALLRAEYELREMLLRLLEEIF [Peptide R2-18],–,–,−1.186,5940,–
VDFEIQLMQQRAQWIADYRIREFLDKLIAEIF [Peptide R1-94],increased activity as compared to the control peptide,++,–,–,Emax (PTHR1 [1]): 90.8%; EC50 (PTHR1 [1]; [7]): 7.36e-05 µM; −log10Slope (PTHR1 [1]; [8]): −3.981

# Source: patent publication US12344649B2, “Modulators of parathyroid hormone receptor (PTHR1)” (Flagship Pioneering Innovations VI, LLC, priority 2019, dated 2025)
